Laboratory results: US10145845B2, “On-chip assay for environmental surveillance” (priority 2015, dated 2018)

Tests used:
[1] = drafted three tiered IDLHs; cited from earlier work
[2] = system: RAD54 protein; details: yeast cells, H2O2 170, 1700 and 17,000 ppm for 60 minutes
Procedure: Yeast cells grown in YPD (for Yeast-extract, Peptone and Dextrose culture medium) was harvested in early saturation phase of growth and distributed into the first row of the microchip (A1 through A3), covered with a plexiglass lid and stored as slurries (10^7 cells) at 4° C. until use. H2O2 was added to experimental wells and deionized water to the control well.
A single time, multiple dose study was done at 170, 1700 and 17,000 ppm for 60 minutes. Y-PER (for Yeast-Protein Extraction Reagent) supplemented with protease inhibitor cocktail was added to the cells and incubated for 20 minutes at room temperature (RT).
The supernatant (cell extract) was transferred using an ultrafine pipette tip to the second row of wells (B1 through B3) and incubated with the colloidal SERS immunosensor for RAD54 detection by incubating for 90 minutes at RT. […]
The spectra were analyzed by multivariate PCA-LDA (principle component analysis and linear discriminant analysis) using the leave-one-out cross validation model. The levels of RAD54 protein were measured using the SERS-linked immunosensor assay and RAD54 levels expressed in response to H2O2 were correlated to EPA 3-tier guideline levels, IDLHs (for Immediately Dangerous to Life and Health concentrations) as determined by the Center for Disease Control and Prevention (CDC).

Q: Which “IDLH tier II (lethal, long-lasting disabling effect)” value [1] does the source give for `OO` [H2O2, Hydrogen peroxide] here?
A: ≤ 1000 ppm

Q: And the “IDLH tier III (lethal, life-threatening effect or even death)” value [1]?
A: > 1000 ppm

Q: What about the “peak intensity of protein measured at 1390 cm^-1 (carboxylic band, SLISA)” value [2] of the same compound?
A: dose-dependent increase

Q: What about the “increase in RAD54 expression as compared to control (baseline expression by cells with no toxin exposure)” value ([2]; SLISA and ELISA) of the same compound?
A: ~4 fold
